The source of these data is patent US4176116A, “Dipeptide derivatives” (Hoffmann-La Roche Inc., priority 1976, dated 1979).

SMILES strings stand for the structures. pIC50, pKi: −log10 of the molar value. Peptide text beside a SMILES is read from it. * marks the point of attachment. Tos = Cc1ccc(S(=O)(=O)*)cc1; Isobutyryl = CC(C)C(=O)*; Pentanoyl = CCCCC(=O)*; PhAc = O=C(Cc1ccccc1)*; Piv = CC(C)(C)C(=O)*; Bz = O=C(c1ccccc1)*

Sequence of porcine pancreatic elastase (P00772 27-266): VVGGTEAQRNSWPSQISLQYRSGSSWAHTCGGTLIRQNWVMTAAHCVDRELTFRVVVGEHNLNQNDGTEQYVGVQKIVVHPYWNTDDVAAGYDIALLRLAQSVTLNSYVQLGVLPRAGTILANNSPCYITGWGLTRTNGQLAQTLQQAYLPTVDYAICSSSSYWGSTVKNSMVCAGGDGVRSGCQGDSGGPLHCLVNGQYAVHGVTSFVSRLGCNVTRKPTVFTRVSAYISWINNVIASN

The target in the first assay is T1, human granulocyte elastase (Homo sapiens, UniProt P08246).
T1 sequence (P08246 30-267): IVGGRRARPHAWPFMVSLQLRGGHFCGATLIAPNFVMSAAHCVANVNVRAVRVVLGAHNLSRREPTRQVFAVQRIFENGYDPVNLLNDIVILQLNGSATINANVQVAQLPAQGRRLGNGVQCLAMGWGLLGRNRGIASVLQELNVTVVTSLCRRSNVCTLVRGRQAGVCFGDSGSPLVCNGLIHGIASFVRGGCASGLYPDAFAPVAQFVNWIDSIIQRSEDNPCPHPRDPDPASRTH
In words: in vitro elastase inhibition, test method of Visser and Blout. Type of assay: biochemical. To be noted: human granulocyte elastase as the enzyme; read-out: I50 (concentration which gives 50% inhibition of the human granulocyte elastase). An excerpt:
Acta 268 (1972) 257, using porcine pancreatic elastase as the enzyme. The results obtained with representative dipeptide derivatives in this test are given in Table I hereinafter, the Ki being the inhibitor constant in millimoles per liter:
The result obtained with a representative dipeptide derivative in this test is given in Table II hereinafter, the I50 being the concentration in millimoles per liter which gives 50% inhibition of the human granulocyte elastase: […]
As for `CCNC(=O)[C@@H]1CCCN1C(=O)[C@H](C)NS(=O)(=O)c1ccc(C)cc1` [N-(p-Toluenesulphonyl)-L-alanyl-L-proline ethylamide] (Tos-Ala-Pro-NHEt), the pIC50 is 3.05.

The next assay concerns the target porcine pancreatic elastase (Sus scrofa, UniProt P00772). The description is as above. Type of assay: biochemical. The following applies: porcine pancreatic elastase as the enzyme; read-out: Ki (inhibitor constant). From the text: Acta 268 (1972) 257, using porcine pancreatic elastase as the enzyme. The results obtained with representative dipeptide derivatives in this test are given in Table I hereinafter, the Ki being the inhibitor constant in millimoles per liter: […]
Turning to `CCCCC(=O)N[C@@H](C)C(=O)N1CCC[C@H]1C(=O)NCC` [N-(n-Valeryl)-L-alanyl-L-proline ethylamide] (Pentanoyl-Ala-Pro-NHEt), the pKi is 4.10.

With `CCNC(=O)[C@H](C)NC(=O)[C@H](C)NC(=O)c1ccccc1` [N-Benzoyl-L-alanyl-L-alanine ethylamide] (Bz-Ala-Ala-NHEt), the pKi was 3.92.

As to `CCNC(=O)[C@@H]1CCCN1C(=O)[C@H](C)NC(=O)c1ccccc1` [N-Benzoyl-L-alanyl-L-proline ethylamide] (Bz-Ala-Pro-NHEt), the pKi was 4.59.

With `CCNC(=O)[C@@H]1CCCN1C(=O)[C@H](C)NC(=O)C1CCCCC1` [N-Cyclohexylcarbonyl-L-alanyl-L-proline ethylamide], the negative logarithm of the Ki (pKi) was 5.00.

Turning to `CCNC(=O)[C@@H]1CCCN1C(=O)[C@H](C)NC(=O)C(C)C` [N-Isobutanoyl-L-alanyl-L-proline ethylamide] (Isobutyryl-Ala-Pro-NHEt), the pKi is 4.22.

Turning to `CCNC(=O)[C@@H]1CCCN1C(=O)[C@H](C)NC(=O)Cc1ccccc1` [N-Phenacetyl-L-alanyl-L-proline ethylamide] (PhAc-Ala-Pro-NHEt), the pKi was 4.07. For `CCNC(=O)[C@@H]1CCCN1C(=O)[C@H](C)NC(=O)C(C)(C)C` [N-Pivaloyl-L-alanyl-L-proline ethylamide] (Piv-Ala-Pro-NHEt), the pKi is 4.05.

The pKi is the Ki on a negative log10 scale, so that one unit is a factor of ten.
